This is an account of results in ChEMBL document CHEMBL1201862, “PubChem BioAssay data set” (2004).

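Interpolation was linear, between the two tested concentrations surrounding the appropriate level; five concentrations were tested over 48 hours in 96-well plates. At the GI50, growth is halved.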 Activity calls are given as the source filed them. No stated cut-off is given here; in the data, active = GI50 up to about 1.1 µM and inactive = higher.

Holding throughout (assay): NCI tumour cell line growth inhibition, 48 h
Experiment [1] relates to 786-0.
For experiment [2], the system named is BT-549.
Experiment [3] deals with CAKI-1.
Experiment [4] concerns COLO 205.
In experiment [5] the test system is DU-145.
Experiment [6] has as its system HT-29.
Experiment [7] has as its system IGROV-1.
The subject of experiment [8] is MDA-MB-231.
Experiment [9] concerns MDA-MB-435.
Experiment [10] relates to NCI-H226.
For experiment [11], the system named is NCI/ADR-RES.
The subject of experiment [12] is OVCAR-5.
Experiment [13] has as its system OVCAR-8.
Experiment [14] has as its system SF-295.
For experiment [15], the system named is SK-MEL-5.
Experiment [16] has as its system T47D.
The test system of experiment [17] is UACC-257.
For experiment [18], the system named is UACC-62.
The subject of experiment [19] is CCRF-CEM.
Experiment [20] concerns OVCAR-4.

`CSc1[nH]cnc1C(N)=S`: the GI50 in [1], in experiment [2], in experiment [3], in experiment [4], in [5] and in [6] was > 100 µM (inactive) throughout. Also, the GI50 in [7], in [8], in experiment [9], in [10], in experiment [11] and in [12] was > 100 µM (inactive) throughout. Further, the GI50 in [13], in experiment [14], in experiment [15], in [16], in experiment [17] and in [18] was > 100 µM (inactive) throughout.
As to `CCCCCCCCCCCCNC(=O)CCC(NC(=O)c1ccc(N(C)Cc2cnc3nc(N)nc(N)c3n2)cc1)C(=O)NCCCCCCCCCCCC` (centres undefined), the GI50 in experiment [1] is 22.6 µM (inactive); in experiment [2], 41.2 µM (inactive); in experiment [19] it was 25.8 µM (inactive); in experiment [4], > 100 µM (inactive); in [5], > 100 µM (inactive); in experiment [6], > 100 µM (inactive). For the same compound, the GI50 in experiment [7] is 36.1 µM (inactive); in [8], 10.1 µM (inactive); in experiment [9], 52.8 µM (inactive); in [10], > 100 µM (inactive); in experiment [11], > 100 µM (inactive); in experiment [20], 64.1 µM (inactive). Also, the GI50 in [12] is > 100 µM (inactive); in experiment [13], 16.9 µM (inactive); in experiment [14] it was 25.4 µM (inactive); in experiment [15], > 100 µM (inactive); in [16], 24.4 µM (inactive); in experiment [17], > 100 µM (inactive). The GI50 in [18] is 55.5 µM (inactive).
On to `CCOC(=O)c1cc(C(O)P2(=O)N(CC(C)(C)C)[C@@H]3CCCC[C@H]3N2CC(C)(C)C)cn1C(=O)OC(C)(C)C` (some centres undefined), for which the GI50 was 15.6 µM (inactive) in [1]; 17 µM (inactive) in experiment [2]; 14.8 µM (inactive) in experiment [3]; 17.3 µM (inactive) in experiment [4]; 16.6 µM (inactive) in experiment [5]; 13.8 µM (inactive) in [6]. Further, the GI50 is 4.8 µM (inactive) in experiment [7]; 16 µM (inactive) in [8]; 13.9 µM (inactive) in [9]; 20.6 µM (inactive) in experiment [10]; 16.8 µM (inactive) in [11]; 13.9 µM (inactive) in experiment [20]. Besides, the GI50 is 17.3 µM (inactive) in experiment [12]; 24.8 µM (inactive) in experiment [13]; 15 µM (inactive) in experiment [14]; 17.5 µM (inactive) in [15]; 15.1 µM (inactive) in [16]; 14.4 µM (inactive) in experiment [17]. Besides, in experiment [18], the GI50 was 13.7 µM (inactive).
With `CCN(CC)CCC(=O)Nc1ccc2sc3ccccc3c(=O)c2n1`, the GI50 in [1] was 12.5 µM (inactive); in [2] it was 15.6 µM (inactive); in [3] it was 14 µM (inactive); in experiment [19] it was 14.5 µM (inactive); in [4], 12.9 µM (inactive); in experiment [5], 23.4 µM (inactive). In addition, the GI50 in experiment [6] is 36.7 µM (inactive); in experiment [7], 16.5 µM (inactive); in [8] it was > 10 µM (inactive); in experiment [9] it was 13.1 µM (inactive); in experiment [11] it was 19.8 µM (inactive); in experiment [20], 22.9 µM (inactive). Besides, the GI50 in [12] was 18.9 µM (inactive); in experiment [13], 17.5 µM (inactive); in experiment [14], 21.2 µM (inactive); in experiment [15] it was 17.9 µM (inactive); in experiment [16], 16.1 µM (inactive); in [17] it was 17.3 µM (inactive). Also, the GI50 in [18] was 17.7 µM (inactive).
Turning to `Cc1ccc(Nc2n[nH]c(=S)s2)cc1C`, the GI50 in [1] is > 100 µM (inactive); in experiment [2] it was > 100 µM (inactive); in experiment [3] it was > 100 µM (inactive); in [19], 72.9 µM (inactive); in [4], 66.1 µM (inactive); in experiment [5] it was > 100 µM (inactive). The GI50 in experiment [6] is 57.4 µM (inactive); in [7], > 100 µM (inactive); in experiment [8], > 100 µM (inactive); in experiment [9], 53.5 µM (inactive); in [11], > 100 µM (inactive); in experiment [20], 89.9 µM (inactive). In addition, the GI50 was > 100 µM (inactive) in [12]; > 100 µM (inactive) in [13]; 79.6 µM (inactive) in [14]; 68.2 µM (inactive) in experiment [15]; 27.4 µM (inactive) in experiment [16]; > 100 µM (inactive) in experiment [17]. For the same compound, the GI50 in [18] was > 100 µM (inactive).
As to `N=C(CC/C(N)=N/O)NO`, the GI50 in [1], in experiment [2], in experiment [3], in experiment [5], in experiment [6] and in experiment [7] was > 100 µM (inactive) throughout. In addition, the GI50 in [8], in experiment [9], in experiment [10], in experiment [11], in experiment [20] and in [12] was > 100 µM (inactive) in each case. For the same compound, the GI50 in experiment [14], in [15], in [16], in experiment [17] and in [18] was > 100 µM (inactive) each time.
For the compound `O=C(O)C12C3C4(C(=O)O)C1C1(C(=O)O)C2C3(C(=O)O)C41` (centres undefined), the GI50 in experiment [1], in experiment [2], in experiment [3], in experiment [19], in experiment [4] and in experiment [5] was > 100 µM (inactive) each time. In addition, the GI50 in experiment [6], in experiment [7], in [8], in [9], in experiment [11] and in experiment [20] was > 100 µM (inactive) each time. Moreover, the GI50 in experiment [12] is > 100 µM (inactive); in experiment [13] it was > 100 µM (inactive); in experiment [14], 4.4 µM (inactive); in [15] it was > 100 µM (inactive); in [16] it was > 100 µM (inactive); in experiment [17], > 100 µM (inactive). Further, in [18], the GI50 was > 100 µM (inactive).
On to `COc1ccc(OC)c(C2CCc3c(cnc4nc(N)nc(N)c34)C2)c1` (centres undefined), for which the GI50 in experiment [1] is 4.48 µM (inactive); in experiment [2], 14.3 µM (inactive); in experiment [3] it was 14 µM (inactive); in [4], 16.1 µM (inactive); in experiment [5], 13.9 µM (inactive); in experiment [6] it was 2 µM (inactive). The GI50 is 2.29 µM (inactive) in [7]; 12.2 µM (inactive) in [8]; 2.56 µM (inactive) in [9]; 24.9 µM (inactive) in [10]; 55.3 µM (inactive) in [11]; 10.2 µM (inactive) in experiment [20]. In addition, the GI50 in [12] is 4.7 µM (inactive); in experiment [13], 5.36 µM (inactive); in experiment [14], 7.23 µM (inactive); in experiment [15] it was 11 µM (inactive); in experiment [16] it was 20.7 µM (inactive); in [17] it was 4.28 µM (inactive). Also, the GI50 in [18] was 0.673 µM (active).
